Reference: the NIST ThermoML archive (doi:10.1016/j.fluid.2009.06.015)
Numbers after ± are expanded uncertainties.

Experiment: excess molar enthalpy (molar enthalpy of mixing); xn = mol fraction of the nth substance listed
Conditions: 101 kPa, Liquid, Flow calorimetry

c1ccccc1 [benzene] + CCCCO
excess molar enthalpy [kJ/mol]
Conditions	298.15 K	313.15 K
x1 = 0.0494	–	0.148 ± 0.006
x1 = 0.0504	0.118 ± 0.0048	–
x1 = 0.0997	0.237 ± 0.0065	–
x1 = 0.1007	–	0.304 ± 0.0083
x1 = 0.1497	0.356 ± 0.0087	0.451 ± 0.011
x1 = 0.1997	0.474 ± 0.011	–
x1 = 0.2007	–	0.598 ± 0.014
x1 = 0.2495	–	0.733 ± 0.016
x1 = 0.2505	0.59 ± 0.013	–
x1 = 0.3001	0.697 ± 0.015	–
x1 = 0.3002	–	0.862 ± 0.019
x1 = 0.3506	0.797 ± 0.017	–
x1 = 0.3507	–	0.98 ± 0.021
x1 = 0.3999	0.886 ± 0.019	–
x1 = 0.401	–	1.09 ± 0.024
x1 = 0.4493	–	1.17 ± 0.025
x1 = 0.4502	0.963 ± 0.021	–
x1 = 0.4993	–	1.24 ± 0.027
x1 = 0.5002	1.03 ± 0.022	–
x1 = 0.5492	–	1.3 ± 0.028
x1 = 0.5501	1.08 ± 0.023	–
x1 = 0.5998	1.11 ± 0.024	–
x1 = 0.601	–	1.33 ± 0.028
x1 = 0.6505	1.12 ± 0.024	–
x1 = 0.6506	–	1.34 ± 0.029
x1 = 0.7	1.11 ± 0.024	–
x1 = 0.7001	–	1.32 ± 0.028
x1 = 0.7495	–	1.28 ± 0.028
x1 = 0.7503	1.07 ± 0.023	–
x1 = 0.7996	1.01 ± 0.022	–
x1 = 0.8007	–	1.2 ± 0.026
x1 = 0.8497	0.919 ± 0.02	–
x1 = 0.8498	–	1.08 ± 0.024
x1 = 0.8996	0.776 ± 0.018	–
x1 = 0.9007	–	0.901 ± 0.021
x1 = 0.9495	–	0.606 ± 0.016
x1 = 0.9504	0.538 ± 0.014	–
